Data as given in PubChem BioAssay (NCI).
“And” between values parts separate entries of the source, which are not always exact repeats. Identical values can stand only once.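 Test compounds were applied to cells in 96-well plates for 48 hours at 5 doses. GI50 = concentration required for 50% inhibition of growth. TGI: total growth inhibition.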

How the values were obtained:
Experiment in all cases: NCI-60 cell line screen, 48 h
[1] = tested on: ACHN renal
[2] = tested on: HCT-15 colon
[3] = tested on: HOP-62 NSCLC
[4] = tested on: MDA-MB-231 breast
[5] = tested on: NCI-H226 lung
[6] = tested on: OVCAR-3 ovarian
[7] = tested on: SK-OV-3 ovarian
[8] = tested on: SR leukemia
[9] = tested on: UACC-62 melanoma
[10] = tested on: UO-31 renal

Row | SMILES | GI50 [1] | TGI [1] | GI50 [2] | TGI [2] | GI50 [3] | TGI [3] | GI50 [4] | TGI [4] | GI50 [5] | TGI [5] | GI50 [6] | TGI [6] | GI50 [7] | TGI [7] | GI50 [8] | TGI [8] | GI50 [9] | TGI [9] | GI50 [10] | TGI [10]
1 | O=C(Nc1nc(-c2ccc(Cl)cc2)cs1)c1cc(O)c(O)c(O)c1 | 113 µM | 1140 µM | 150 µM | > 5000 µM | 255 µM | 1880 µM | 141 µM | 3150 µM | 663 µM | 2570 µM | 245 µM | 1080 µM | 538 µM | 3420 µM | 96.3 µM | 1060 µM | 158 µM | 958 µM | 50.6 µM | 569 µM
2 | C=C1C(=O)O[C@H]2[C@H]1CC/C(COC(=O)c1cccnc1N)=C\CC[C@@]1(C)O[C@@H]21 | 1.03 µM | 10.3 µM | 2.34 µM | 9.79 µM | 4.89 µM | 18.6 µM | 2.32 µM | 6.9 µM | 10.1 µM | 24.4 µM | 1.04 µM | 2.88 µM | 12.2 µM | 73 µM | 0.539 µM | 10.4 µM | 3.02 µM | 13.3 µM | 2.17 µM | 10.2 µM
3 | CN1CCC2(CC1)N=C(SCC(=O)Nc1cnc3ccccc3c1)C(c1ccc(Br)cc1)=N2 | 1.7 µM | 3.39 µM | 1.86 µM | 3.76 µM | 3.42 µM | 14.7 µM | 1.55 µM | 3.23 µM | 10.4 µM | 26.2 µM | 3.29 µM | 12 µM | 4.25 µM | 15.9 µM | 2.07 µM | 5.29 µM | 1.71 µM | 3.21 µM | 1.37 µM | 2.68 µM
4 | C[N+](C)(C)CC(=O)N/N=C(\Cc1nc2ccc([N+](=O)[O-])cc2[nH]c1=O)C(=O)Nc1nc2ccc([N+](=O)[O-])cc2s1 | – | > 100 µM | – | > 100 µM | – | > 100 µM | – | > 100 µM | – | > 100 µM | – | > 100 µM | – | > 100 µM | – | > 100 µM | – | > 100 µM | – | > 100 µM
5 | C=C1c2nc3ccccc3n2C=C(c2cccc(Cl)c2)N1Cc1ccc(OC)cc1 | 1.11 µM | > 100 µM | 0.535 µM | > 100 µM | 2.35 µM | 39.8 µM | 0.964 µM | > 100 µM | 4.5 µM | 30 µM | – | – | 2.88 µM | > 100 µM | 0.274 µM | 1.31 µM | 0.937 µM | 19.1 µM | 1.92 µM | 33.7 µM
6 | O=S(=O)(NC1=NCCN1C(=S)SN1CCn2c1nsc2=S)c1ccc(Oc2ccccc2)cc1 | 81.3 µM | > 100 µM | 72.1 µM | > 100 µM | > 100 µM | > 100 µM | 37.8 µM | > 100 µM | > 100 µM | > 100 µM | > 100 µM | > 100 µM | > 100 µM | > 100 µM | 3.7 µM | 45.8 µM | 39.3 µM | > 100 µM | > 100 µM | > 100 µM
7 | CCCCC(=O)N(c1ccc(Nc2c3ccccc3nc3cc([N+](=O)[O-])ccc23)cc1)S(C)(=O)=O | 3.85 µM | > 88.7 µM | 4.45 µM | 29 µM | 4.52 µM | 52.5 µM | 12.8 µM | 49.5 µM | 8 µM | 32.9 µM | 14.2 µM | 66.6 µM | 27 µM | > 100 µM | 1.97 µM | > 42.6 µM | 7.12 µM | 26.1 µM | 3.61 µM | 45.3 µM
8 | COc1ccc(OC)c(Nc2nc3nonc3nc2Nc2cccc(Br)c2)c1 | 0.927 µM | 13.3 µM | 0.756 µM | > 100 µM | 1.62 µM | 7.43 µM | 1.06 µM | 10.7 µM | 0.588 µM | 40.2 µM | 0.6 µM | 21.6 µM | 0.486 µM | 4.1 µM | 2.36 µM | 10.9 µM | 0.301 µM | 14.1 µM | 0.622 µM | 53.7 µM
9 | COC(=O)C1C(C(=O)O)C2(c3ccccc3)C(=O)C1(c1ccccc1)C(c1ccccc1)=C2c1ccccc1 (stereo not drawn) | 25.8 µM | 88.1 µM | 32.5 µM | > 100 µM | 21.2 µM | 41.4 µM | 19.4 µM | 38.5 µM | 24.8 µM | 66 µM | 19.7 µM | 50.4 µM | 18.3 µM | 36.6 µM | 23.8 µM | 56.6 µM | 15.5 µM | 29.9 µM | 17.9 µM | 36 µM
10 | Cc1cc(O)ccc1C1=NN(c2ccc(S(N)(=O)=O)cc2)C(=O)CC1 | 19.3 µM and 38.3 µM | 50 µM and > 100 µM | 2.67 µM and 4.2 µM | 50 µM and > 100 µM | 12.8 µM and 25 µM | 46 µM and 86.9 µM | 10.9 µM and 21.8 µM | 50 µM and > 100 µM | 10.9 µM and 94.5 µM | 50 µM and > 100 µM | 2.69 µM and 8.06 µM | 29.9 µM and 71 µM | 10.8 µM and 51.7 µM | 50 µM and > 100 µM | 1.05 µM and 1.12 µM | 50 µM and 6.78 µM | 2.74 µM and 3.68 µM | 50 µM and > 100 µM | 18.1 µM and 35.1 µM | 50 µM and > 100 µM
11 | CC1=CC(=O)N(c2cccc3c(N4C(=O)C=C(C)C4=O)cccc23)C1=O | 2.78 µM | 11 µM | 2.67 µM | 10.2 µM | 28.3 µM | > 69.3 µM | 8.44 µM | 22.5 µM | 23.1 µM | > 63.8 µM | 1.54 µM | 5.9 µM | 53 µM | > 100 µM | 1.56 µM | 5.22 µM | 7.68 µM | 20.5 µM | 1.78 µM | 4.44 µM
12 | COc1ccc2c(c1)C(=Nc1ccc(F)c(Cl)c1)c1c-2c(Nc2ccc(F)c(Cl)c2)nc2ccccc12 | 24.1 µM | > 70.8 µM | > 71.3 µM | > 100 µM | 13.7 µM | 32.4 µM | 23 µM | > 61.3 µM | 39 µM | > 77.6 µM | 42.7 µM | > 100 µM | 18.8 µM | 98.6 µM | 0.0122 µM | 0.0862 µM | 22.3 µM | > 70.5 µM | > 100 µM | > 100 µM
